{"source": "patent US9164075B2", "about": "“Glutathione alkylester isotopologue and method for detecting reactive metabolite” (priority 2011, dated 2015)", "key": {"[1]": {"settings": "rat, 60 min, 10 μmol/L, pH 7.4", "description": "Glutathione ethyl ester (1 mmol/L, 1 μmol) was used as the trapping agent instead of the mixture of glutathione ethyl ester (GSHEE) and glutathione ethyl ester-d5 (GSHEE-d5), and the reaction and measurement were performed in the same manner as in (step 1) and (step 2) described above.\nIn the MS/MS measurement corresponding to (step 2-3), the MS/MS measurement was performed in a data dependent scan mode in which ions with the strongest intensity in a first spectrum were subjected to collisional activation to thereby obtain a second spectrum. The measurement conditions used are as follows (measurement conditions C)."}, "[2]": {"settings": "for NUMBER OF IDENTIFIED REACTIVE METABOLITES (EXAMPLES): rat, 60 min, 10 μmol/L, pH 7.4", "description": "(§1) NADPH (20 mmol/L, […]) was added to the pre-incubated incubation mixture and a reaction (incubation) was started. The final incubation volume was 1 mL. A sample containing no object compound was used as a control.\nAfter incubation at 37° C. for 60 minutes, a 50 mmol/L aqueous dithiothreitol solution (100 μL, 5 μmol) was added to the incubation mixture, and the resultant mixture was subjected to centrifugation at 10,000 g for 5 minutes. The centrifugation supernatant was added to a solid phase extraction column (OASIS HLB 1 cc, 30 mg) that was pre-washed with 1 mL of methanol and activated with 1 mL of purified water. The column was washed with 1 mL of water and 1 mL of 5% methanol solution, and a reaction product was eluted with 1 mL of methanol. The solvent was removed by evaporation under nitrogen flow, and the residue was dissolved in 150 μL of acetonitrile:water (2:8) to prepare an analysis sample.\nAn AQCUITY UPLC system (WATERS) was used for separation by chromatography. Aliquots (10 μL) of the prepared analysis sample was injected into an AQCUITY UPLC BEH C18 column (2.1×100 mm, 1.7 μm). The separation by chromatography was performed under gradient conditions shown in the following table at a mobile phase flow rate of 0.5 mL/minute.\n(§2) The LC column eluate obtained in step 2-1 was introduced into an LTQ XL ion trap mass spectrometer. Ionization was performed in an ESI positive mode (a mode for detecting positively charged ions). The measurement conditions used are shown below (measurement conditions A).\nThe measurement conditions used are shown below (measurement conditions B).\nAmong the peaks appearing in the final chromatogram, peaks other than the peaks also appearing in the final chromatogram for the control (FIG. 2 or 13) are considered to be the peaks of trapping agent-reactive metabolite adducts."}, "[3]": {"settings": "rat, 60 min, 10 μmol/L, pH 7.4", "description": "as §1\nAfter incubation at 37° C. for 60 minutes, the resultant mixture was subjected to centrifugation at 10,000 g for 5 minutes. The centrifugation supernatant was added to a solid phase extraction column (OASIS HLB 1 cc, 30 mg) that was pre-washed with 1 mL of methanol and activated with 1 mL of purified water. The column was washed with 1 mL of water and 1 mL of 5% methanol water, and a reaction product was eluted with 1 mL of methanol. The solvent was removed by evaporation under nitrogen flow, and the residue was dissolved in 150 μL of acetonitrile:water (2:8) to prepare an analysis sample.\nAn AQCUITY UPLC system (WATERS) was used for separation by chromatography. Aliquots (10 μL) of the prepared analysis sample was injected into an AQCUITY UPLC BEH C18 column (2.1×100 mm, 1.7 μm). The separation by chromatography was performed under the gradient conditions shown in TABLE 3 at a mobile phase flow rate of 0.5 mL/minute.\nas §2\nThe measurement conditions used are shown below (measurement conditions E).\nAmong the peaks appearing in the final chromatogram, peaks other than the peaks also appearing in the final chromatogram for the control (FIG. 46) are considered to be the peaks of trapping agent-reactive metabolite adducts.", "remark": "listed apart in the source"}, "[4]": {"assay": "Reactive metabolite trapping test with glutathione ethyl ester only, data dependent scan mode with Dynamic Exclusion ON (Comparative Example 8)", "format": "in vitro ADME", "settings": "rat liver microsomes", "description": "Omeprazole was used as the object compound. Measurement was performed in the same manner as in Comparative Example 1 except that the MS/MS measurement corresponding to (step 2-3) was performed in a data dependent scan mode (a Dynamic Exclusion ON mode) in which the MS/MS measurement was performed on ions in descending order of intensity. In the data dependent scan mode (Dynamic Exclusion ON mode), ions for a peak with the strongest intensity among the peaks in a first spectrum are subjected to MS/MS measurement three times. Then these ions are eliminated, and ions with the next strongest intensity are subjected to MS/MS measurement three times. This processing is repeated in order of intensity. The measurement conditions used are as follows (measurement conditions D)."}}, "data": [{"compound": "O=C(O)Cc1ccccc1Nc1c(Cl)cccc1Cl", "note": "[diclofenac]", "values": [{"measurement": "NUMBER OF IDENTIFIED REACTIVE METABOLITES (COMPARATIVE EXAMPLES, GSHEE)", "setting": "[1]", "result": 1}]}, {"compound": "COc1ccc2[nH]c([S+]([O-])Cc3ncc(C)c(OC)c3C)nc2c1", "note": "(centres unmarked) [omeprazole]", "values": [{"measurement": "judgement of reactive metabolite formation", "setting": "[2]", "result": "positive"}, {"measurement": "NUMBER OF IDENTIFIED REACTIVE METABOLITES (EXAMPLES)", "setting": "[2]", "result": 2}, {"measurement": "NUMBER OF IDENTIFIED REACTIVE METABOLITES (COMPARATIVE EXAMPLES, [13C2, 15N]GSH)", "setting": "[3]", "result": 2}, {"measurement": "number of types of reactive metabolite found", "setting": "[4]", "result": "one"}, {"measurement": "NUMBER OF IDENTIFIED REACTIVE METABOLITES (COMPARATIVE EXAMPLES, GSHEE)", "setting": "[1]", "result": 1}]}, {"compound": "O=c1c(O)c(-c2ccc(O)c(O)c2)oc2cc(O)cc(O)c12", "note": "[quercetin]", "values": [{"measurement": "judgement of reactive metabolite formation", "setting": "[2]", "result": "positive"}, {"measurement": "NUMBER OF IDENTIFIED REACTIVE METABOLITES (EXAMPLES)", "setting": "[2]", "result": 3}, {"measurement": "NUMBER OF IDENTIFIED REACTIVE METABOLITES (COMPARATIVE EXAMPLES, [13C2, 15N]GSH)", "setting": "[3]", "result": 2}, {"measurement": "NUMBER OF IDENTIFIED REACTIVE METABOLITES (COMPARATIVE EXAMPLES, GSHEE)", "setting": "[1]", "result": 3}]}, {"compound": "O=C(O)COc1ccc(C(=O)c2cccs2)c(Cl)c1Cl", "note": "[tienilic acid]", "values": [{"measurement": "judgement of reactive metabolite formation", "setting": "[2]", "result": "positive"}, {"measurement": "NUMBER OF IDENTIFIED REACTIVE METABOLITES (EXAMPLES)", "setting": "[2]", "result": 1}, {"measurement": "NUMBER OF IDENTIFIED REACTIVE METABOLITES (COMPARATIVE EXAMPLES, [13C2, 15N]GSH)", "setting": "[3]", "result": 1}, {"measurement": "NUMBER OF IDENTIFIED REACTIVE METABOLITES (COMPARATIVE EXAMPLES, GSHEE)", "setting": "[1]", "result": 0}]}]}
